Data set [1] deals with NF-κB. Kind of data set: NF-κB-regulated luciferase reporter assay in H116 human colon cancer cells. The data set is classed as cell-based. To be noted: for activation of NF-κB-regulated luciferase reporter: H116 cells, luciferase measured six hours after addition. The source says:
While translocation of NF-κB to the nucleus is a crucial step in induction of NF-κB-regulated inhibitors of apoptosis, it is not sufficient in itself. To directly test the ability of selected fragments to induce expression of NF-κB-regulated genes, we performed reporter assay experiments. Flagellin and the AA′, BB′, A′ and B′ fragments were used for treatment of H116 human colon cancer cells carrying luciferase gene under a NF-κB-responsive promoter. The reporter construct contained three NF-κB-binding sites from the E-selectin promoter combined with a Hsp70 minimal promoter that is routinely used for the detection of NF-κB status of cells. Luciferase activity was measured in cell lysates six hours after addition of flagellin or its truncated fragments into the medium. TNF was used as positive control.
In order to study the ability of the AA′ fragments to directly activate NF-κB-regulated transcription, we performed reporter assay experiments as described above for a wide range of concentrations of flagellin, original AA′ and AA′-derived fragments.

Data set [2] deals with mice treated with total body gamma radiation. Kind of data set: Mouse survival after total body gamma irradiation (radioprotection). The data set is classed as in vivo. To be noted: for 30-day survival, 11 Gy / 30-day survival, 14 Gy: s.c. 5.0 μg/mouse (0.2 mg/kg); for 30-day survival, 11 Gy: 1 hour before 11 Gy; for 30-day survival, 14 Gy: 1 hour before 14 Gy. The procedure:
Whole body irradiation of mice with 15 Gy gamma radiation caused death within 8 days from GI syndrome providing a conventional model of radiation induced damage of GI tract. To test whether flagellin was capable of protecting GI epithelium from IR, we tested the effect of i.v.-injected flagellin on the dynamics of mouse lethality after 15 Gy of radiation. […] Irradiation was done 4 hours post treatment. As expected, control irradiated mice (that received PBS i.v.) died between 5 and 8 days post-treatment. […] Intravenous, intraperitoneal and subcutaneous delivery of 0.2 mg/kg of flagellin followed by 13 Gy irradiation afforded similar degree of protection, leading to 85-90% 30-day survival of mice (data not shown). While not being bound by theory, flagellin may be a radioprotectant due to its activation of NF-κB, which presumably acts as an inhibitor of apoptotic death.
The experiments were done similarly to the above-described ones (FIGS. 14 and 15), however, instead of 15Gy, mice received 10Gy, the dose that caused 100% killing in control group by day 13 (FIG. 6).
In order to further estimate the dependence of radioprotective activity of flagellin on the time of treatment, mice were injected at several time points relative to the moment of gamma-irradiation. Experiments were performed essentially as explained above, using intraperitoneal injection of 5 μg/mouse (0.2 mg/kg) of full-length flagellin or, for control mice, 5 μg/mouse (0.2 mg/kg) of bacterial RNA polymerase. The experiments were performed using the NIH-Swiss mouse strain. […] Only −1 h graph is shown for clarity, however, both timepoints (−1 and −2 h) provide similar degree and dynamics of survival.
We next obtained an estimate of radiation dose-dependent protection for flagellin. As shown above (FIG. 7), treatment with flagellin was sufficient for 100% protection against 10 Gy gamma-irradiation (this dose causes death from hematopoietic syndrome) and 90% 30-day survival at 13 Gy (both hematopoietic and GI syndromes). Experiments were performed as described above, using flagellin 5 μg/mouse (0.2 mg/kg), intraperitoneally injected 1 h before irradiation.
As shown above, full-length flagellin provides protection from both hematopoietic and gastrointestinal syndromes. The radioprotective potential of flagellin fragments was similarly tested after gamma-irradiation with 11 Gy (dose that induces hematopoietic syndrome-associated mortality in mice) or 14 Gy (dose that causes death from GI syndrome). Mice (10 animals per group) were injected subcutaneously with 5.0 μg/mouse (0.2 mg/kg) of flagellin or its fragments, AA′ or BB′, and gamma-irradiated 1 hour later.
In order to explore the limits of radioprotection provided by the AA′ fragment, we irradiated mice with 17 Gy and 20 Gy single doses of total body gamma-radiation.
(§1) We tested the ability of AA′ to protect mice that were exposed to it. A group of 20 NIH-Swiss mice were subcutaneously injected with 5 μg/mouse (0.2 mg/kg) of AA′. A second injection of a equal dose of AA′ was administered after 21 (10 mice) and 28 days (another 10 mice), with the time elapsed being sufficient for formation of antibodies. The second injection of AA′ was followed by 13 Gy of whole-body gamma irradiation (1 h post-injection).
Repetitive irradiation within a short period of time may be common, for example, in space radiation events and in clinical radiotherapy regimens. We tested the ability of the AA′ flagellin fragment to protect mice from sub-lethal (4 treatments of 3 Gy) and 100% lethal (4 treatments of 4 Gy) regimens of fractionated gamma-irradiation. Fragment AA′ or saline buffer was given to NIH-Swiss female mice before every irradiation (once a day for 4 days). AA′ was administered as described above for single-dose irradiation (5 μg/mouse, given subcutaneously 1 h before irradiation). […]
We have extensively confirmed that AA′ protects NIH-Swiss and ICR mice from radiation. […]

The format of data set [3] is in vivo, mouse. To be noted: for antibody level at 21 day: 21 days after injection. As to the method:
as §1
We also performed an ELISA determination of antibody titers in order to quantify the effect that AA′ has on the immune status of the organism. 96-well plates were coated with flagellin or AA′, […], […], and incubated overnight at +4° C. Blood serum samples collected from mice were added to the wells in several dilutions and incubated overnight followed by 6 hrs reaction with secondary goat anti-mouse IgG HPO-conjugate antibodies. Measurements were performed using a spectrophotometer with a 414 nm filter.

Data set [4] concerns NIH-Swiss mice. The data set is classed as in vivo, mouse. To be noted: repeated administration.
Source text: Overall immunogenicity of a protein may determines its suitability for repeated use. Antibodies generated by immune system are capable of reducing the therapeutic activity of the protein and also may induce anaphylactic reaction upon second exposure if IgE antibodies are produced against the protein. Thus, any reduction in the amount and variety of antibodies compared to full-length flagellin is an improvement. Accordingly, after repeated introduction of flagellin or its fragments we monitored; a) efficiency of radioprotection afforded at second exposure; b) local and general allergic reactions; and c) antibody titer.
as §1

Data set [5] relates to NF-κB. Kind of data set: EMSA of NF-κB translocation / DNA binding in A549 cells. To be noted: for inducing NF-κB translocation: nuclear extracts of treated A549 lung cancer cells. A general note: In EMSA bound probe runs differently from free probe, usually more slowly.
Setting [6] is: 5 μg/mouse (0.2 mg/kg) i.p. 1 h before 15 Gy.
Where [7] appears, read: 5 μg/mouse i.p. 1 h before irradiation, estimate.

A value given as a limit tells only on which side of the number the result lay.

As a reminder, the mortality is the percentage killed. A low value points to a weak lethal effect. Consider “AA′: flagellin fragment (1-177)-Linker-(402-505), SEQ ID NO: 8”, for which the “activation of NF-κB-regulated luciferase reporter” value in data set [1] is listed as “capable of NF-κB activation”. For the same substance, in data set [1] (reporter assay, over the studied range of concentrations), the “level of NF-κB-regulated transcription relative to flagellin” value is recorded as “comparable to such of flagellin”. For the same substance, in data set [1] (very low concentration range), the “NF-κB reporter activity relative to flagellin” value is on record as “more active than flagellin”. Also, the “protection against fractionated gamma-irradiation” value in data set [2] (5 μg/mouse s.c. 1 h before every irradiation, 4 treatments of 3 Gy or 4 Gy, NIH-Swiss female mice) is on record as “significant protection”. For the same substance, the “survival at day 10, Balb/c mice” value in data set [2] (0.2 mg/kg 30 minutes before 10 Gy, vehicle 0%) worked out at 100%. The “time of mortality at 17 Gy” value in data set [2] (17 Gy, control mice 6-7 day mortality) lay in the range of 10 to 15 days. For the same substance, the “delay of death after supralethal irradiation” value in data set [2] (17 and 20 Gy, versus inactive fragment control) is on record as “significantly delayed”. Also, the “survival at day 30, all tested strains” value in data set [2] (129/Sv, DBA/2, Balb/c, CD2F1, 0.2 mg/kg 30 minutes before 10 Gy, vehicle 0-25%) was 50-100%. Besides, in data set [2] (LPS 2 mg/kg or AA′ 0.2 mg/kg s.c. 1 hr before 13 Gy, with NS398 1 mg/kg i.p., NIH-Swiss), the “effect of NS398 on radioprotection” value is “not”. In data set [2], the “30-day survival, 11 Gy” value was 100% and the “30-day survival, 14 Gy” value was 100%. For the same substance, the “30-day survival after second exposure to AA′” value in data set [2] (second s.c. injection 0.2 mg/kg after 21 or 28 days, 13 Gy 1 h post-injection, NIH-Swiss) amounted to 100%. For the same substance, in data set [2] (single dose 17 Gy total body), the “mortality at 17 Gy” value is listed as 100%. Besides, the “mortality at 20 Gy” value in data set [2] (single dose 20 Gy total body) was 100%. For the same substance, in data set [3] (AA′ versus flagellin), the “immunogenicity of the original protein removed” value is recorded as > 95% and the “reduction of immunogenicity compared to the original protein” value is “approximately 25 ×”. Moreover, in data set [3] (serum), the “increase of antibody level at 28 days over 21 day” value is “about 10%” and the “antibody level at 21 day” value was ~0.8 mg/mL. For the same substance, the “local allergic reaction or anaphylaxis” value in data set [4] is “no local allergic reaction or anaphylaxis”. Moreover, the “NF-κB Stimulation” value in data set [5] (A549 cells, 1 μg/ml, 45 min, EMSA of whole cell extracts) is “Yes”. Besides, the “level of NF-κB translocation, fragments versus flagellin” value in data set [5] (EMSA, A549 cells) is given as “comparable”. In addition, in data set [5] (EMSA), the “inducing NF-κB translocation” value was “capable of inducing NF-κB translocation”.
For “flagellin: Salmonella dublin FliC flagellin, 505 amino acids, SEQ ID NO: 1; recombinant full-length protein”, the “activation of NF-κB-regulated luciferase reporter” value in data set [1] is listed as “capable of NF-κB activation”. Also, in data set [2] (setting [6]), the “7-day survival at 15 Gy” value came out at 100% and the “30-day survival at 15 Gy” value came out at 0%. In addition, in data set [2] (setting [7]), the DMF30 is given as 1.75-1.8 and the “LD50/30 (radiation dose, flagellin-treated mice)” value is recorded as 13.5-14 Gy. Besides, the “protection from 10Gy (HP syndrome)” value in data set [2] (5 μg/mouse, 10Gy) is on record as “complete protection”. In data set [2] (50 μg by gavage 1 h before 13 Gy), the “protection against radiation by gavage delivery” value is reported as “No protection”. Also, the “30-day survival, parenteral routes” value in data set [2] (0.2 mg/kg i.v., i.p., i.m. or s.c., 1 hr before 13 Gy, NIH-Swiss) was 85-90%. The “30-day survival of mice” value in data set [2] (0.2 mg/kg intravenous, intraperitoneal or subcutaneous, followed by 13 Gy) was 85-90%. For the same substance, the “protection against 10 Gy gamma-irradiation” value in data set [2] (10 Gy (hematopoietic syndrome)) amounted to 100%. Further, the “30-day survival at 13 Gy” value in data set [2] (13 Gy) is 90%. In addition, the “protection from 10 Gy” value in data set [2] (administered 24 hours before 10 Gy) came out at 100%. The “survival after 13 Gy irradiation” value in data set [2] (i.p. 5 μg/mouse (0.2 mg/kg), injected 1 or 2 hours before, NIH-Swiss mice) was ~90%. Moreover, the “protection, 4 h timepoint” value in data set [2] (i.p. 5 μg/mouse, injected 4 h before 13 Gy, NIH-Swiss) is listed as “somewhat lower protection”. Besides, in data set [2] (i.p. 5 μg/mouse, injected 24 hours before 13 Gy), the “protective effect against 13 Gy induced death” value is “no protective effect”. Also, the “survival after 15 Gy” value in data set [2] (i.v., irradiation 4 hours post treatment, 15 Gy, PBS controls died between 5 and 8 days) is recorded as “lived significantly longer”. Besides, the “radioprotectant effect from 13Gy” value in data set [2] (injected 1-4 h before 13Gy) was “effective as a radioprotectant”. For the same substance, the “approximate DMF (30-day survival)” value in data set [2] (mouse, in vivo) is listed as “greater than 1.5”. Also, in data set [2], the “30-day survival, 11 Gy” value is on record as 100% and the “30-day survival, 14 Gy” value worked out at 100%. For the same substance, the “antibody level at 21 day” value in data set [3] (serum) is reported as “around 20 mg/ml”. Further, in data set [3] (serum, 28 days after injection), the “antibody level at 28 days” value is “around 20 mg/ml”. For the same substance, in data set [4], the “local allergic reaction or anaphylaxis” value is listed as “no local allergic reaction or anaphylaxis”. The “inducing NF-κB translocation” value in data set [5] (EMSA) was “capable of inducing NF-κB translocation”.
